Laboratory results taken from patent publication US20180214395A1 (priority 2017, published 2018).
Values joined by “and” are separate entries in the source; they are usually repeats but may differ in a detail not shown here. Identical values can stand only once. Counter-ions that a name gives are not always drawn.

What was measured:
[1] = Novelty-suppressed feeding test (NSFT); type: in vivo; conditions: rat, 72 hr after single dose
[2] = system: opioid receptors; conditions: cited from earlier work
[3] = Forced swim test; type: in vivo, rat
[4] = Locomotor activity assessment (distance traveled, rearing); type: in vivo, rat
[5] = Female urine sniffing test (FUST); type: in vivo; conditions: rat; 24 hr after single dose; ketamine 10 mg/kg ip, d-methadone 20 mg/kg sc
[6] = mouse hot plate test; cited from earlier work
[7] = target: T1, serotonin transporter (SERT or 5-HT) (Rattus norvegicus, UniProt P31652)
T1 sequence (P31652 whole entry): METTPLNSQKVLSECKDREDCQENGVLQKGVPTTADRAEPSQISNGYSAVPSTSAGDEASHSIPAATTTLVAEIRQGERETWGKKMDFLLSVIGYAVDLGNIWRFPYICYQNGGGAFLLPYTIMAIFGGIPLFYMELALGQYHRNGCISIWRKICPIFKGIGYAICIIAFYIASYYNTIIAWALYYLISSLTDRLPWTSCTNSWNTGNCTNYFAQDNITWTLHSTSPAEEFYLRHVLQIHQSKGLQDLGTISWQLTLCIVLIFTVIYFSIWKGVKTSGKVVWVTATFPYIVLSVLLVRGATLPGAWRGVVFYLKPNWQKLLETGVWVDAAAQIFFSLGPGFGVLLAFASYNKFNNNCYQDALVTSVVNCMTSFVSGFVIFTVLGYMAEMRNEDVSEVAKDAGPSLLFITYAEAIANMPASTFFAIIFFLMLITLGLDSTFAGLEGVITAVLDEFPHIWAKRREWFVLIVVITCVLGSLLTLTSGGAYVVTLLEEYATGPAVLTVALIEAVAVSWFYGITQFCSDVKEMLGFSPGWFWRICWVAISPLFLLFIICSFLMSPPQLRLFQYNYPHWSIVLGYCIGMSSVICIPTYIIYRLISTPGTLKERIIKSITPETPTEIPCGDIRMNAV

[8] = target: T2, PCP (antagonist radioligand) (Rattus norvegicus, UniProt P35439); test: Binding assay PCP (antagonist radioligand); conditions: Study 2; Hill coefficient
T2 construct: PCP; rat cerebral; [^3H]TCP; tissue Eurofins Cerep; host or cells: rat cerebral cortex

[9] = target: T1, serotonin transporter (SERT or 5-HT); test: biochemical
[10] = target: T3, norepinephrine transporter (NET) (Rattus norvegicus, UniProt Q63380); test: Norepinephrine uptake assay; type: biochemical; conditions: for norepinephrine uptake, % inhibition: 1.0E−05 M
T3 construct: tissue Eurofins Cerep; host or cells: rat hypothalamus synaptosomes (own knowledge of the vendor's assay)
T3 sequence (Q63380 1-617): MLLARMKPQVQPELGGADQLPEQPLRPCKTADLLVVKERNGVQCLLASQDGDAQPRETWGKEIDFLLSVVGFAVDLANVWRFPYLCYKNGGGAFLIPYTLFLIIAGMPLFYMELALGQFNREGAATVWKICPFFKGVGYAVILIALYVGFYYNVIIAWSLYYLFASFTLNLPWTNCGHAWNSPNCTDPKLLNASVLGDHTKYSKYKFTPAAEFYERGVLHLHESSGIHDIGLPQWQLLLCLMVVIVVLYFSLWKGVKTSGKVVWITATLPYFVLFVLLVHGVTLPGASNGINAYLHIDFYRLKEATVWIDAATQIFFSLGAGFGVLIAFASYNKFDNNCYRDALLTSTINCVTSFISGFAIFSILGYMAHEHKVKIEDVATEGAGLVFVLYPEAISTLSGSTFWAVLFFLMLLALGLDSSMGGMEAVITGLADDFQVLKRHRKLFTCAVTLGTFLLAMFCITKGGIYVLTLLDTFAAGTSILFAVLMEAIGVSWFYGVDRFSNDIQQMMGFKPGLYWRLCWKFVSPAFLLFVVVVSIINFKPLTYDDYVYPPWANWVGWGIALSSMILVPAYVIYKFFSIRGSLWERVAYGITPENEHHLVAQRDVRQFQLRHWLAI

[11] = target: NMDA (antagonist radioligand); test: Binding assay NMDA (antagonist radioligand); conditions: Study 1; reference compound
[12] = target: μ (MOP) (h) (Homo sapiens, UniProt P35372)
Sequence of μ (MOP) (h) (P35372 whole entry): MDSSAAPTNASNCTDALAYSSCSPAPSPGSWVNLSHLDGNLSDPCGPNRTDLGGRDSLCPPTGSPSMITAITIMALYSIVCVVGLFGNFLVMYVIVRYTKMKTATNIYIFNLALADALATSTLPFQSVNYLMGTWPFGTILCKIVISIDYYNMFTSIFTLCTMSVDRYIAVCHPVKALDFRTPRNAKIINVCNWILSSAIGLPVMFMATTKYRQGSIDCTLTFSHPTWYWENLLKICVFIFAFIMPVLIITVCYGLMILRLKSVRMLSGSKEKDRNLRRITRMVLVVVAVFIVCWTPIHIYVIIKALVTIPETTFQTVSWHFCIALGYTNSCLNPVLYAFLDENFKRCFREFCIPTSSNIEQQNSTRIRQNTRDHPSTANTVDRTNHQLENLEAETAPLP

[13] = 10 mg/kg, single administration 24 hours prior, 60 counts per subject
[14] = Vehicle minus treatment, 10 mg/kg
[15] = 10 mg/kg, 24 hours prior to testing
[16] = rat, 24 h after dosing, one-way ANOVA

Compound: CCC(=O)C(CC(C)N(C)C)(c1ccccc1)c1ccccc1 (racemic) [methadone]
- NSFT: latency to feed in the home cage [1]: neither ketamine or methadone influenced

Compound: CCC(=O)C(c1ccccc1)(c1ccccc1)C(C)CN(C)C (stereo not drawn) [d-isomethadone]
- Potency, times less potent than l-isomethadone [2]: 50 times

Compound: CNC1(c2ccccc2Cl)CCCCC1=O (centres unmarked) [ketamine, reference compound]
- Climbing, Mean frequency [3, 13]: 7.600
- Immobility, Mean frequency [3, 13]: 34.100
- Swimming, Mean frequency [3, 13]: 18.300
- Climbing, Mean Diff. (Fisher's PLSD) [3, 14]: −3.822
- Immobility, Mean Diff. (Fisher's PLSD) [3, 14]: 14.900
- Swimming, Mean Diff. (Fisher's PLSD) [3, 14]: −11.078
- Forced swim test: frequency of immobility vs vehicle ([3]; rat, 24 h after single dose, d-methadone 10, 20 and 40 mg/kg SC, ketamine 10 mg/kg IP): significantly decreased
- Forced swim test: frequency of swimming vs vehicle ([3]; rat, d-methadone 10, 20 and 40 mg/kg SC, ketamine 10 mg/kg IP): significantly increased
- Distance traveled min 1-5, Mean [4, 15]: 586.333
- Rearing min 1-5, Mean [4, 15]: 20.500
- Total Distance Traveled, Mean [4, 15]: 2464.333 cm/60 min
- Total Rearing, Mean ([4]; 10 mg/kg, 24 hours prior to testing, 60 minute test): 85.000
- Locomotor activity: total distance traveled (60 min) [4, 16]: no significant effect
- Locomotor activity: total rearing frequency (60 min) [4, 16]: no significant effect
- FUST: time sniffing water [5]: no effect
- FUST: time spent sniffing female urine vs vehicle [5]: increases
- NSFT: latency to feed in the home cage [1]: neither ketamine or methadone influenced
- NSFT: latency to eat in a novel open field ([1]; ketamine 10 mg/kg ip, d-methadone 20 mg/kg sc): significantly decreases

Compound: C[C@H](CN1CCOCC1)C(C(=O)N1CCCC1)(c1ccccc1)c1ccccc1 [d-moramide]
- Potency, times more potent than l-moramide [6]: 700 times

Compound: CC[C@@H](c1cccc(O)c1)[C@@H](C)CN(C)C [TapentadolHydrochloride]
- inhibition [7]: 91.1% and 87.2% and 89.1%

Compound: [2H]C([2H])([2H])CC(=O)C(C[C@H](C)N(C([2H])([2H])[2H])C([2H])([2H])[2H])(c1ccccc1)c1ccccc1
- nH [8]: 0.8
- IC50 [9]: 1100 nM
- IC50 [10]: 7200 nM
- norepinephrine uptake, % inhibition [10]: 61.4%
- inhibition [7]: 90.5%

Compound: C[C@]12N[C@H](Cc3ccccc31)c1ccccc12 [MK 801]
- nH [8]: 0.9 and 1.1

Compound: O=C(O)[C@@H]1C[C@H](CP(=O)(O)O)CCN1 [CGS 19755]
- IC50 [11]: 1300 nM
- Ki [11]: 1100 nM

Compound: CC[C@@H](c1cccc(O)c1)[C@@H](C)CN(C)C [tapentadol hydrochloride, reference compound]
- IC50 [9]: 850 nM
- IC50 [10]: 260 nM
- norepinephrine uptake, % inhibition [10]: 94.1%
- inhibition [7]: 89.1%

Compound: C[C@@H](NC(=O)[C@@H](N)Cc1ccc(O)cc1)C(=O)NCC(=O)N(C)[C@@H](Cc1ccccc1)C(=O)NCCO [DAMGO]
- nH [12]: 0.9 and 0.8 and 0.7 and 1.0 and 0.6
